According to the Kinase Knowledgebase extract (Sharma et al. 2016):

Target: EGFR (human) (UniProt P00533)
Settings: bt474

Sequence of EGFR (human) (P00533 whole entry, looked up): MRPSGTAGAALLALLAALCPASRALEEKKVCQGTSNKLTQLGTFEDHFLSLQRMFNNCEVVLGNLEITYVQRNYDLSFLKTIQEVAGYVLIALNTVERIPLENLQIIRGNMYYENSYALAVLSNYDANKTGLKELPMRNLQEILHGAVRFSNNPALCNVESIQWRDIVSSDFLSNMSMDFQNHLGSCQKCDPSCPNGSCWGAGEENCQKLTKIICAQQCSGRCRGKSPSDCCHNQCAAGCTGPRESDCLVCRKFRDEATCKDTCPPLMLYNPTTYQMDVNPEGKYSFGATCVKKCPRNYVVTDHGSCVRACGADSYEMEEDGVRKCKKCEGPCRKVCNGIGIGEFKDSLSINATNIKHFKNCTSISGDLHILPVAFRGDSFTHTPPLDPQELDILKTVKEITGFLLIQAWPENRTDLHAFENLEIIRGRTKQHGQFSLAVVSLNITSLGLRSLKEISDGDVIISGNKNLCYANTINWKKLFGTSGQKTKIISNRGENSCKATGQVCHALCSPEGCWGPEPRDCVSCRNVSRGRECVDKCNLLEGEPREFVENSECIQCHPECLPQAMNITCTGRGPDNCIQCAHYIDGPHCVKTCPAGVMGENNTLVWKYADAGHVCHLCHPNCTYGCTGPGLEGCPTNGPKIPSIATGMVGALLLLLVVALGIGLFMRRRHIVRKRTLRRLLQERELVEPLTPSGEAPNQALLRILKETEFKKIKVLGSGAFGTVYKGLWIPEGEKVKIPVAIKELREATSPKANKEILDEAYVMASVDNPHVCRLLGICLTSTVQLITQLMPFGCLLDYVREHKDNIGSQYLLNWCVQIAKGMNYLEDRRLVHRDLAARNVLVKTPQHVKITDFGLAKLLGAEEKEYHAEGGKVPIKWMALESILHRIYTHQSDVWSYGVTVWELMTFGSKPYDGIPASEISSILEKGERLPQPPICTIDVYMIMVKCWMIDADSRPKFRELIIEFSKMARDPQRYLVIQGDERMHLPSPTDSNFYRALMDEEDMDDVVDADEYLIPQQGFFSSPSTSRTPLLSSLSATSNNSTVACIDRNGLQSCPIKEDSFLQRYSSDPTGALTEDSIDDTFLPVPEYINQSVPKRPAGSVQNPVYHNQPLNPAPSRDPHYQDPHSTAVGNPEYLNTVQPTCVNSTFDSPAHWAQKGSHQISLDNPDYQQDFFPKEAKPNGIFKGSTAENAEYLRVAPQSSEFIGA

SMILES | IC50
COC[C@@H]1CCN1C/C=C/C(=O)Nc1cc2c(Nc3ccc(F)c(Cl)c3)ncnc2cc1OC | 21.5 nM
COC[C@H]1CCN1C/C=C/C(=O)Nc1cc2c(Nc3ccc(F)c(Cl)c3)ncnc2cc1OCC1CC1 | 6.6 nM
O=C(/C=C/CN1CCC1CO)Nc1cc2c(Nc3ccc(F)c(Cl)c3)ncnc2cc1OC[C@H]1[C@@H]2COC[C@@H]21 (some centres undefined) | 10.8 nM
COC[C@@H]1CCN1C/C=C/C(=O)Nc1cc2c(Nc3ccc(F)c(Cl)c3)ncnc2cc1OCC1CC1 | 21.7 nM
O=C(/C=C/CN1CCC1CO)Nc1cc2c(Nc3ccc(F)c(Cl)c3)ncnc2cc1OCC1CC1 (centres undefined) | 9.5 nM
O=C(/C=C/CN1CCC1CO)Nc1cc2c(Nc3ccc(F)c(Cl)c3)ncnc2cc1OC[C@@H]1COCCO1 (some centres undefined) | 17.5 nM

Now those with a lower IC50, led by results:

IC50 | SMILES
5.8 nM | COCCOc1cc2ncnc(Nc3ccc(F)c(Cl)c3)c2cc1NC(=O)/C=C/CN1CC[C@H]1COC
2.9 nM | COCC1CCN1C/C=C/C(=O)Nc1cc2c(Nc3ccc(F)c(Cl)c3)ncnc2cc1O[C@H]1CCOC1 (some centres undefined)
2 nM | CCOc1cc2ncnc(Nc3ccc(F)c(Cl)c3)c2cc1NC(=O)/C=C/CN1CC[C@@H]1COC
2.7 nM | O=C(/C=C/CN1CCC1CO)Nc1cc2c(Nc3ccc(F)c(Cl)c3)ncnc2cc1OC[C@H]1COCCO1 (some centres undefined)
1.6 nM | COC[C@H]1CCN1C/C=C/C(=O)Nc1cc2c(Nc3ccc(F)c(Cl)c3)ncnc2cc1OC
2.3 nM | COc1cc2ncnc(Nc3ccc(F)c(Cl)c3)c2cc1NC(=O)/C=C/CN1CCC1CO (centres undefined)
1.4 nM | COCCOc1cc2ncnc(Nc3ccc(F)c(Cl)c3)c2cc1NC(=O)/C=C/CN1CC[C@@H]1COC
3.9 nM | O=C(/C=C/CN1CCC1CO)Nc1cc2c(Nc3ccc(F)c(Cl)c3)ncnc2cc1O[C@H]1CCOC1 (some centres undefined)
